The source of these data is patent US11597708B2, “Inhibitors of heat shock factors and uses thereof” (HSF Pharmaceuticals SA, priority 2016, dated 2023).

Like-named read-outs stand apart in the source and are kept apart here.

Assay [1] addresses T1, HSF1 (Homo sapiens, UniProt Q00613).
T1 construct: functionally linked to an hsp70b promoter and therefore controlled by endogenous HSF1; endogenous in cells; host or cells: HeLa cells / HeLa-derived cell line Z74
T1 sequence (Q00613 1-529): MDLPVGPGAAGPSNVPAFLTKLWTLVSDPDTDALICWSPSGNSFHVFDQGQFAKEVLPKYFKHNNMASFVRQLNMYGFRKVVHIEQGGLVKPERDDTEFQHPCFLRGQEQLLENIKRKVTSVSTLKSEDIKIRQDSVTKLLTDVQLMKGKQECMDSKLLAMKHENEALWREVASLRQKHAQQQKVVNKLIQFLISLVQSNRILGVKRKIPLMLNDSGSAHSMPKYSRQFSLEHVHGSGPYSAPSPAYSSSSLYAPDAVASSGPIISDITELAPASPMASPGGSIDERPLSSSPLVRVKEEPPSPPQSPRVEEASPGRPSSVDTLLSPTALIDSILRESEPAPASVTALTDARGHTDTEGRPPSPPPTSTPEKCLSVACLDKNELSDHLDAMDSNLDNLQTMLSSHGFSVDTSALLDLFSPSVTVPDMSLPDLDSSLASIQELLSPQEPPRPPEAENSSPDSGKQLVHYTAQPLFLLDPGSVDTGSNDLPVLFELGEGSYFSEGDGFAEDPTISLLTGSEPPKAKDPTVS
The assay can be described thus: Z74 cell-based reporter assay: heat-induced RLuc expression controlled by endogenous HSF1. The settings on record: for IC50: inhibition of HSF1 activity [RLuc]; for inhibition at 12.5 µM: 12.5 μM IHSF, negative values marked *: compound enhanced rLuc activity, read-out: Inhibition of HSF1 activity at 12.5 μM IHSF [RLuc] (%). The method in brief:
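HeLa-derived Z74 cells carry LexA-HSF1-driven firefly luciferase and hsp70b promoter-driven Renilla luciferase, the latter under endogenous HSF1. Cells were treated with compound at 12.5 or 25 μM for 2 h, heated to 43.0 °C for 30 min, then kept 6 h at 37 °C. Both luciferases were read by dual-luciferase luminescence.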

Assay [2] has as its target T2, HSF1 levels (Homo sapiens, UniProt Q00613).
T2 construct: functionally linked to an hsp70b promoter and therefore controlled by endogenous HSF1; endogenous in cells; host or cells: HeLa cells / HeLa-derived cell line Z74
The experiment in a line: Anti-HSF1 western blot of HeLa cell extracts. The assay is classed as cell-based. The settings on record: same extracts of exposed, heat-treated HeLa cells. On the procedure: FIG. 3. (A) HeLa cell cultures were mock-treated (−) or exposed for 2 hours to the indicated concentrations of compounds 058 or 115 and then heat-treated (HS) at 43° C. for 30 min. Top panels: HSF1 DNA-binding activities in cell extracts were determined by EMSA. The panels show the major HSF1-HSE DNA probe complexes. Middle panels: HSF1 levels assayed by western blot (WB). GAPDH served as a loading control. Bottom panels: HSF1 homooligomerization. Aliquots of extracts were EGS-treated and then analyzed by anti-HSF1 WB. The positions of pre-stained molecular weight marker proteins (MW, in thousands) are indicated to the right. Asterisks indicate the positions of monomeric and trimeric HSF1, respectively. (B) Relative occupancy of the hspa1a promoter was assessed by chromatin immunoprecipitation assay of HeLa cell cultures mock-treated (−) or treated with compounds 058 or 115 at 12.5 μM concentrations for 2 hours and then heat-treated (HS) at 43° C. for 30 min. Chromatin fragments were immunoprecipitated using HSF1 antibodies or an F4/80 LR (control) antibody, and associated hspa1a promoter DNA was quantified by real-time PCR. […]

Setting [3] is: Z74 cells, 25 μM IHSF, 2 h exposure, 43° C. 30 min, 6 h at 37° C., read-out: Inhibition of HSF1 activity at 25 μM IHSF [RLuc] (%).

Take `CCOC(=O)/C=C/C(=O)Nc1nccs1` [IHSF 001, (E)-ethyl 4-oxo-4-(thiazol-2-ylamino)but-2-enoate]: the inhibition at 25 µM in assay [1] (IHSF 001 tested at 25 μM, Experiment No. 1, read-out: Inhibition of HSF1 activity [RLuc] (%)) amounted to 66%; in assay [1] (IHSF 001 tested at 25 μM, Experiment No. 2, read-out: Inhibition of HSF1 activity [RLuc] (%)), 69%; in assay [1] (IHSF 001 tested at 25 μM, Experiment No. 3, read-out: Inhibition of HSF1 activity [RLuc] (%)), 69%; in assay [1] (IHSF 001 tested at 25 μM, Experiment No. 4, read-out: Inhibition of HSF1 activity [RLuc] (%)) it was 67%; in assay [1] (IHSF 001 tested at 25 μM, Experiment No. 5, read-out: Inhibition of HSF1 activity [RLuc] (%)), 68%; in assay [1] (IHSF 001 tested at 25 μM, Experiment No. 6, read-out: Inhibition of HSF1 activity [RLuc] (%)), 63%. Also, the inhibition at 25 µM in assay [1] (IHSF 001 tested at 25 μM, Experiment No. 7, read-out: Inhibition of HSF1 activity [RLuc] (%)) turned out to be 56%; in assay [1] (IHSF 001 tested at 25 μM, Experiment No. 8, read-out: Inhibition of HSF1 activity [RLuc] (%)), 51%; in assay [1] (IHSF 001 tested at 25 μM, Experiment No. 9, read-out: Inhibition of HSF1 activity [RLuc] (%)), 45%; in assay [1] (setting [3]), 64%. For the same compound, in assay [1] (Z74 cells), the IC50 was found to be 17.8 µM. Further, the inhibition at 12.5 µM in assay [1] (Z74 cells) came out at 37%.
Turning to `CN(C(=O)/C=C/C1=NCCCO1)c1ncc(-c2cccnc2)s1` [IHSF 115, (E)-3-(5,6-Dihydro-4H-[1,3]oxazin-2-yl)-N-methyl-N-(5-pyridin-3-yl-thiazol-2-yl)-acrylamide], in assay [1] (Z74 cells), the midpoint of inhibition, the IC50, lay at 0.7 µM and the inhibition at 12.5 µM is 99%. The inhibition at 25 µM in assay [1] (setting [3]) amounted to 100%. The “activity in the Z74-based screening assay” value in assay [1] (most potent IHSF) is listed as “substantial activity in the high nanomolar range”. The “HSF1 levels (anti-HSF1 western blot)” value in assay [2] is “did not affect HSF1 levels”.
In the case of `CCOC(=O)/C=C/C(=O)Nc1ncc(-c2cccnc2)s1` [IHSF 058, (E)-3-(5-Pyridm-3-yl-thiazol-2-ylcarbamoyl)-acrylic acid ethyl ester], in assay [1] (Z74 cells), the IC50 was found to be 4.8 µM and the inhibition at 12.5 µM worked out at 79%. Moreover, the inhibition at 25 µM in assay [1] (setting [3]) was 97%. Also, the “HSF1 levels (anti-HSF1 western blot)” value in assay [2] is listed as “reduced levels of HSF1”.
